Here are results for 26 compounds from patent publication US5563172A, “Macrocyclic amide and urea immunomodulators” (Abbott Laboratories, priority 1994, dated 1996).

As usually defined, the IC50 is the concentration that gives 50% inhibition. The low end stands for greater potency, the high end for weaker potency.

The assay concerns human mixed lymphocyte reaction (MLR). As to the kind of experiment: human mixed lymphocyte reaction (MLR) assay, immunosuppressant activity. Format: cell-based. The note with it: Table 1. As to the method:
The immunosuppressant activity of the compounds of the present invention was determined using the human mixed lymphocyte reaction (MLR) assay described by Kino, T. et al. in Transplantation Proceedings, XIX(5):36-39,Suppl. 6 (1987).

In turn, `CCOC(=O)COC1CCC(C=C(C)C2OC(=O)C3CCCCN3C(=O)C(=O)C3(O)OC(C(OC)CC(C)CC(C)=CC(CC)C(=O)CC(O)C2C)C(OC)CC3C)CC1OC` (centres unmarked) [Example 1] registered an IC50 of 0.9 nM.

As to `CCC1C=C(C)CC(C)CC(OC)C2OC(O)(C(=O)C(=O)N3CCCCC3C(=O)OC(C(C)=CC3CCC(OCC(=O)OCc4ccccc4)C(OC)C3)C(C)C(O)CC1=O)C(C)CC2OC` (centres unmarked) [Example 2], the concentration for half-maximal inhibition (IC50) stood at 7.6 nM. In turn, `CCC1C=C(C)CC(C)CC(OC)C2OC(O)(C(=O)C(=O)N3CCCCC3C(=O)OC(C(C)=CC3CCC(OCC(=O)O)C(OC)C3)C(C)C(O)CC1=O)C(C)CC2OC` (centres unmarked) [Example 3] showed a half-maximal inhibitory concentration (IC50) of 140 nM. Against the preceding compound, the IC50 is about 18-fold higher. For `CCC1C=C(C)CC(C)CC(OC)C2OC(O)(C(=O)C(=O)N3CCCCC3C(=O)OC(C(C)=CC3CCC(OCC(=O)NCc4ccccc4)C(OC)C3)C(C)C(O)CC1=O)C(C)CC2OC` (centres unmarked) [Example 4], inhibition was half-maximal at 0.5 nM (IC50).

`CCC1C=C(C)CC(C)CC(OC)C2OC(O)(C(=O)C(=O)N3CCCCC3C(=O)OC(C(C)=CC3CCC(OCC(N)=O)C(OC)C3)C(C)C(O)CC1=O)C(C)CC2OC` (centres unmarked) [Example 6] had an IC50 of 0.1 nM. The compound `CCC1C=C(C)CC(C)CC(OC)C2OC(O)(C(=O)C(=O)N3CCCCC3C(=O)OC(C(C)=CC3CCC(OCC(=O)N4CCOCC4)C(OC)C3)C(C)C(O)CC1=O)C(C)CC2OC` (centres unmarked) [Example 29] registered a 50% inhibitory concentration (IC50) of 0.7 nM.

Compound `CCC1C=C(C)CC(C)CC(OC)C2OC(O)(C(=O)C(=O)N3CCCCC3C(=O)OC(C(C)=CC3CCC(OCC(=O)NCCCO)C(OC)C3)C(C)C(O)CC1=O)C(C)CC2OC` (centres unmarked) [Example 31] registered a half-inhibitory concentration (IC50) of 1.1 nM. In the case of `CCC1C=C(C)CC(C)CC(OC)C2OC(O)(C(=O)C(=O)N3CCCCC3C(=O)OC(C(C)=CC3CCC(OCC(=O)NCC(=O)O)C(OC)C3)C(C)C(O)CC1=O)C(C)CC2OC` (centres unmarked) [Example 39], the half-maximal inhibitory concentration (IC50) was found to be 173 nM.

`CCC1C=C(C)CC(C)CC(OC)C2OC(O)(C(=O)C(=O)N3CCCCC3C(=O)OC(C(C)=CC3CCC(OCC(=O)NN4CCOCC4)C(OC)C3)C(C)C(O)CC1=O)C(C)CC2OC` (centres unmarked) [Example 51] displayed a half-maximal inhibitory concentration (IC50) of 0.3 nM. This IC50 lies about 580-fold lower than the previous one.

Compound `CCC1C=C(C)CC(C)CC(OC)C2OC(O)(C(=O)C(=O)N3CCCCC3C(=O)OC(C(C)=CC3CCC(OCC(=O)Nc4ccc(C(F)(F)F)cc4)C(OC)C3)C(C)C(O)CC1=O)C(C)CC2OC` (centres unmarked) [Example 53] displayed an IC50 of 0.2 nM.

As for `CCC1C=C(C)CC(C)CC(OC)C2OC(O)(C(=O)C(=O)N3CCCCC3C(=O)OC(C(C)=CC3CCC(OCC(=O)Nc4ccc(F)cc4)C(OC)C3)C(C)C(O)CC1=O)C(C)CC2OC` (centres unmarked) [Example 54], half-maximal inhibition (IC50) was put at 0.02 nM. The value for `CCC1C=C(C)CC(C)CC(OC)C2OC(O)(C(=O)C(=O)N3CCCCC3C(=O)OC(C(C)=CC3CCC(OCC(=O)Nc4cccnc4)C(OC)C3)C(C)C(O)CC1=O)C(C)CC2OC` (centres unmarked) [Example 57] was 0.1 nM. `CCC1C=C(C)CC(C)CC(OC)C2OC(O)(C(=O)C(=O)N3CCCCC3C(=O)OC(C(C)=CC3CCC(OCC(=O)Nc4ccncc4)C(OC)C3)C(C)C(O)CC1=O)C(C)CC2OC` (centres unmarked) [Example 58] yielded a 50% inhibitory concentration (IC50) of 0.15 nM. As for `CCC1C=C(C)CC(C)CC(OC)C2OC(O)(C(=O)C(=O)N3CCCCC3C(=O)OC(C(C)=CC3CCC(OCC(=O)Nc4ccccn4)C(OC)C3)C(C)C(O)CC1=O)C(C)CC2OC` (centres unmarked) [Example 59], 0.05 nM corresponded to half-maximal inhibition (IC50). `CCC1C=C(C)CC(C)CC(OC)C2OC(O)(C(=O)C(=O)N3CCCCC3C(=O)OC(C(C)=CC3CCC(OCC(=O)NNC(=O)c4ccncc4)C(OC)C3)C(C)C(O)CC1=O)C(C)CC2OC` (centres unmarked) [Example 71]: the half-inhibitory concentration (IC50) was found to be 0.1 nM. Regarding `CCC1C=C(C)CC(C)CC(OC)C2OC(O)(C(=O)C(=O)N3CCCCC3C(=O)OC(C(C)=CC3CCC(OCC(=O)Nc4cccc(F)c4)C(OC)C3)C(C)C(O)CC1=O)C(C)CC2OC` (centres unmarked) [Example 72], it took 0.08 nM to reach half-maximal inhibition (IC50).

With `CCC1C=C(C)CC(C)CC(OC)C2OC(O)(C(=O)C(=O)N3CCCCC3C(=O)OC(C(C)=CC3CCC(OCC(=O)Nc4cccc(O)c4)C(OC)C3)C(C)C(O)CC1=O)C(C)CC2OC` (centres unmarked) [Example 73], inhibition was half-maximal at 0.04 nM (IC50). This IC50 is about 2-fold lower than that of the compound before. Take `CCC1C=C(C)CC(C)CC(OC)C2OC(O)(C(=O)C(=O)N3CCCCC3C(=O)OC(C(C)=CC3CCC(OCC(=O)N4CCN(C)CC4)C(OC)C3)C(C)C(O)CC1=O)C(C)CC2OC` (centres unmarked) [Example 74]: the IC50 was 0.06 nM. The value for `CCC1C=C(C)CC(C)CC(OC)C2OC(O)(C(=O)C(=O)N3CCCCC3C(=O)OC(C(C)=CC3CCC(OCC(=O)NCCc4ccccc4)C(OC)C3)C(C)C(O)CC1=O)C(C)CC2OC` (centres unmarked) [Example 82] was 0.3 nM; that for `CCC1C=C(C)CC(C)CC(OC)C2OC(O)(C(=O)C(=O)N3CCCCC3C(=O)OC(C(C)=CC3CCC(OCC(=O)N(C)CCc4ccccc4)C(OC)C3)C(C)C(O)CC1=O)C(C)CC2OC` (centres unmarked) [Example 83] was 0.4 nM; that for `CCC1C=C(C)CC(C)CC(OC)C2OC(O)(C(=O)C(=O)N3CCCCC3C(=O)OC(C(C)=CC3CCC(OCC(=O)Nc4ccccc4)C(OC)C3)C(C)C(O)CC1=O)C(C)CC2OC` (centres unmarked) [Example 85] was 0.5 nM. The compound `CCC1C=C(C)CC(C)CC(OC)C2OC(O)(C(=O)C(=O)N3CCCCC3C(=O)OC(C(C)=CC3CCC(OCC(=O)NCCCN4CCOCC4)C(OC)C3)C(C)C(O)CC1=O)C(C)CC2OC` (centres unmarked) [Example 87] showed a half-maximal inhibitory concentration (IC50) of 1.1 nM.

The compound `CCC1C=C(C)CC(C)CC(OC)C2OC(O)(C(=O)C(=O)N3CCCCC3C(=O)OC(C(C)=CC3CCC(OCC(=O)NCCN(C)C)C(OC)C3)C(C)C(O)CC1=O)C(C)CC2OC` (centres unmarked) [Example 88] had a concentration for half-maximal inhibition (IC50) of 0.1 nM. `CCC1C=C(C)CC(C)CC(OC)C2OC(O)(C(=O)C(=O)N3CCCCC3C(=O)OC(C(C)=CC3CCC(OCC(=O)NCCCN(C)C)C(OC)C3)C(C)C(O)CC1=O)C(C)CC2OC` (centres unmarked) [Example 89] came in with an IC50 of 0.5 nM.

As to `CCC1C=C(C)CC(C)CC(OC)C2OC(O)(C(=O)C(=O)N3CCCCC3C(=O)OC(C(C)=CC3CCC(OCNC(=O)N4CCOCC4)C(OC)C3)C(C)C(O)CC1=O)C(C)CC2OC` (centres unmarked) [Example 111], inhibition was half-maximal at 1.8 nM (IC50). Regarding `CCC1C=C(C)CC(C)CC(OC)C2OC(O)(C(=O)C(=O)N3CCCCC3C(=O)OC(C(C)=CC3CCC(OCNC(=O)Nc4ccccc4)C(OC)C3)C(C)C(O)CC1=O)C(C)CC2OC` (centres unmarked) [Example 112], the 50% inhibitory concentration (IC50) was found to be 0.1 nM.
